We go through 54 molecules from ChEMBL document CHEMBL1201862, “PubChem BioAssay data set” (2004).

Holding throughout (test): NCI tumour cell line growth inhibition, 48 h
For assay [1], the system named is MCF7.
In assay [2] the test system is MDA-N.
The test system of assay [3] is SNB-78.
Assay [4] deals with HOP-18.
Assay [5] deals with DMS-273.
Assay [6] has as its system KM-20L2.
In assay [7] the test system is DMS-114.
The test system of assay [8] is M19-MEL.

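Growth conditions: 96-well plates. Treatment: test compound, 48 hours, 5 concentrations. Analysis: linear interpolation between bracketing concentrations; unreached endpoints set to highest concentration. The concentration for 50% growth inhibition is given as GI50.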 Active and inactive are the calls of the source. Cut-off read from the data, not from the text of the source: active = GI50 up to about 1.1 µM and inactive = higher. Where a SMILES comes first, the peptide text is derived from it. Square brackets hold non-standard residues; d marks the D form. Peptide text beside a SMILES is read from it. The star is where a group is joined. * marks the point of attachment. AllylGly = C=CC[CH](N)C(=O)O; Boc = CC(C)(C)OC(=O)*; OtBu = CC(C)(C)O*

Turning to `Cc1ccc(CC(=O)Nc2ccc(NC(=O)/C=C/NC(=O)/C=C/c3ccc(-c4ccccc4)cc3)cc2C(=O)c2ccccc2)cc1`, the GI50 in assay [1] was 1.72 µM (inactive); in assay [2] it was 2.5 µM (inactive).
For the molecule `CCCc1c(C(=O)OCC)[nH]c(C(=O)CCC(=O)c2[nH]c(C(=O)OCC)c(CCC)c2C(=O)OCC)c1C(=O)OCC`, the GI50 was > 100 µM (inactive) in assay [3]; > 100 µM (inactive) in assay [4]; 84.5 µM (inactive) in assay [5]; > 100 µM (inactive) in assay [6]; > 100 µM (inactive) in assay [7]; > 100 µM (inactive) in assay [8].
Consider `CS/C(=N/C#N)NCCc1c[nH]c2ccccc12`, for which the GI50 in assay [3] is > 100 µM (inactive); in assay [5], > 100 µM (inactive); in assay [6], 44.9 µM (inactive); in assay [7], 60.1 µM (inactive); in assay [8], > 100 µM (inactive).
For `C[C@@H]1S[C@H](c2c(F)cccc2Cl)n2c1nc1ccccc12`, the values for the GI50 in assay [1] and in assay [2] were 25.2 µM (inactive) and 7.62 µM (inactive), respectively.
With `CN(C)c1ccc(-c2nc(N)nc3c2CCCC3)cc1`, the GI50 in assay [3] is 64.7 µM (inactive); in assay [5], 50.2 µM (inactive); in assay [6], 57.8 µM (inactive); in assay [7], 38.5 µM (inactive); in assay [8], 45 µM (inactive).
Take `NC(=O)NN=C1Cc2ccccc2C1`: the GI50 in assay [1] and in assay [2] was > 100 µM (inactive) each time.
Turning to `CC12CC3(O)OC(O1)C1(COC(=O)c4ccccc4)C3CC21OC1OC(CO)C(O)C(O)C1O` (configuration not stated), the GI50 in assay [1] and in assay [2] was > 100 µM (inactive) each time.
As for `O=C(/C=C1\N=C(c2ccccc2)N(c2ccc3c(c2)Sc2cc(N4C(=O)/C(=C/C(=O)/C=C/c5ccccc5)N=C4c4ccccc4)ccc2N3)C1=O)/C=C/c1ccccc1`, in assay [1], the GI50 is 23.9 µM (inactive).
As for `CCOC(=O)CN1C(=O)c2ccc(NC(=O)C(=O)O)cc2S1(=O)=O`, the GI50 in assay [1] and in assay [2] was > 100 µM (inactive) each time.
With `CN1C(=O)C2C(=O)N(Cc3ccccc3)CC(=O)N2c2cccnc21` (configuration not stated), the GI50 in assay [1] and in assay [2] was > 100 µM (inactive) throughout.
For the molecule `O=C1c2ccccc2C(=O)N1CCc1nc(-c2ccccc2)c[nH]1`, the GI50 in assay [1] and in assay [2] was > 100 µM (inactive) throughout.
`O=C1C(NCCF)=C(Cl)C(=O)c2ncccc21`: in assay [1], the GI50 was 0.716 µM (active).
For `CN1CCc2c(sc3ncn(C)c(=N)c23)C1`, the GI50 in assay [1] and in assay [2] was > 100 µM (inactive) in each case.
As to `CC(=O)Nc1cc2c(s1)CCC1CC(=O)NN=C21` (configuration not stated), the GI50 in assay [3], in assay [5], in assay [6], in assay [7] and in assay [8] was > 100 µM (inactive) throughout.
Regarding `CCOP1(=O)CC(C)=C(Cl)C(O)C1` (configuration not stated), the GI50 in assay [1] and in assay [2] was > 100 µM (inactive) throughout.
Regarding `Cc1nc2c(O)c3c(c(O)c2nc1C)C1C=CC3CC1`, the GI50 in assay [1] is 9.75 µM (inactive); in assay [2], 2.97 µM (inactive).
On to `c1ccc2c(OCC3CO3)ccc(OCC3CO3)c2c1` (configuration not stated), for which the GI50 in assay [1] was 0.897 µM (active); in assay [2] it was 2.8 µM (inactive).
As to `COc1ccc(NC/C=C/C(=C/COC(C)=O)OC(C)=O)cc1`, the GI50 in assay [1] was 2.63 µM (inactive); in assay [2] it was 2.05 µM (inactive).
`O=C(CC(CC(=O)Oc1c(Br)cc(Br)cc1C(=O)O)C(=O)Oc1c(Br)cc(Br)cc1C(=O)O)Oc1c(Br)cc(Br)cc1C(=O)O`: the GI50 in assay [3] is 49.2 µM (inactive); in assay [5], > 100 µM (inactive); in assay [6], 56.6 µM (inactive); in assay [7], 31.8 µM (inactive); in assay [8] it was > 100 µM (inactive).
`C[N+](C)(C)[BH-](Br)C(O)O` (configuration not stated): the GI50 in assay [1] and in assay [2] was > 100 µM (inactive) throughout.
`O=C1C(Cl)=C(NCCO)C(=O)c2c(O)ccc(O)c21`: the GI50 in assay [1] is 1.93 µM (inactive); in assay [2], 1.77 µM (inactive).
With `CCOC(=O)c1c(NC(=O)c2ccccc2)c(C#N)c2n1CCCCC2`, the GI50 in assay [1] and in assay [2] was > 100 µM (inactive) each time.
`OCC1OC(n2cnc3c(SCc4ccccc4)ncnc32)C(O)C1O` (configuration not stated): the GI50 was 3.08 µM (inactive) in assay [1] and > 100 µM (inactive) in assay [2].
In the same order, the values of `c1ccc(C2(c3cc4ccccc4[nH]3)OCCO2)cc1` are 31 µM (inactive) and 49.1 µM (inactive).
With `O=C(/N=c1/[nH]/c(=N/C(=O)c2ccccc2)ss1)c1ccccc1`, the GI50 is 48.1 µM (inactive) in assay [3]; 23.1 µM (inactive) in assay [5]; 29.5 µM (inactive) in assay [6]; 26.7 µM (inactive) in assay [7]; 33.6 µM (inactive) in assay [8].
In the case of `CC1CC(c2cccc3c2OCO3)=Nc2ccccc2S1` (configuration not stated), the GI50 in assay [3] was > 100 µM (inactive); in assay [5], > 100 µM (inactive); in assay [6], > 100 µM (inactive); in assay [7], 65.6 µM (inactive); in assay [8], > 100 µM (inactive).
Consider `COc1c(-c2nc3ccc(N4CCN(C)CC4)cc3[nH]2)cc(OC)c2[nH]c(CO)nc12`, for which the GI50 is 54.3 µM (inactive) in assay [1] and 89.7 µM (inactive) in assay [2].
Consider `COc1cc(OC)c2c(c1OC)OCC(Cc1ccc(O)cc1)C2=O` (configuration not stated), for which the GI50 in assay [2] is > 25 µM (inactive).
For `Cc1ccc(/N=N/c2c(O)ccc3cc(S(=O)(=O)O)cc(S(=O)(=O)O)c23)cc1`, the GI50 in assay [1] and in assay [2] was > 100 µM (inactive) throughout.
For `O=C(c1ccc(Cl)c(Cl)c1)N(C(=O)N1CCN(c2ccccc2)CC1)S(=O)(=O)c1ccccc1`, the GI50 in assay [1] was 36.1 µM (inactive); in assay [2], 26.2 µM (inactive).
In the same order, the values of `CCCCCCc1cc2cc(-c3cn4ccccc4n3)c(=O)oc2cc1O` are 5.43 µM (inactive) and 6.17 µM (inactive).
In the case of `Cc1cnc2[nH]c(-c3cccc(Cl)c3)cc(=O)c2c1`, the GI50 in assay [1] was 0.381 µM (active).
On to `CC(C)[C@@H](COC(C)(C)C)/N=C/N1CCc2c([nH]c3ccccc23)C1`, for which the GI50 in assay [3], in assay [5], in assay [6] and in assay [7] was > 100 µM (inactive) throughout.
For the molecule `Cc1nn(C(=O)Cc2ccccc2)c2c1C(c1ccccc1[N+](=O)[O-])SC(=N)N2` (configuration not stated), the GI50 in assay [1] and in assay [2] was > 100 µM (inactive) in each case.
`COC(=O)C(Cc1c[nH]c2ccccc12)NC(=O)C(Cc1c[nH]c2ccccc12)NC(=O)C(Cc1c[nH]c2ccccc12)NC(=O)C(Cc1c[nH]c2ccccc12)NC(=O)C(Cc1c[nH]c2ccccc12)NC(=O)C(Cc1c[nH]c2ccccc12)NC(=O)C(Cc1c[nH]c2ccccc12)NC(=O)C(Cc1c[nH]c2ccccc12)NC(=O)OC(C)(C)C` (configuration not stated) (Boc-WWWWWWWW-OMe; configuration not given here): the GI50 is > 100 µM (inactive) in assay [1] and 39.1 µM (inactive) in assay [2].
As to `COc1cc(S(=O)(=O)Nc2nc(-c3ccc(/N=C/c4cccs4)cc3)cs2)ccc1Cl`, the results for the GI50 in assay [1] and in assay [2] were 36.6 µM (inactive) and > 100 µM (inactive), respectively.
For `COC(=O)C1=C(OC(=O)/C=C/c2ccccc2)C(C(=O)OC)[C@@]2(O)[C@@H](C(=O)OC)[C@H](C)C[C@@H]1[C@@H]2C(=O)OC` (some centres not stated), in that order: 19.3 µM (inactive) and 19.7 µM (inactive).
`COc1ccc(Nc2nc3cc(C(F)(F)F)ccc3nc2C(=O)O)cc1`: the GI50 in assay [1] is 20.9 µM (inactive); in assay [2], 31 µM (inactive).
For `COc1ccc(/C=C2\OC(=O)C(Cl)=C2c2ccc(OC)cc2)cc1`, the GI50 in assay [2] was > 100 µM (inactive).
On to `NS(=O)(=O)c1ccc(NC(=O)c2cc([N+](=O)[O-])cc([N+](=O)[O-])c2)cc1`, for which the GI50 in assay [1] is 19.5 µM (inactive); in assay [2], 21.8 µM (inactive).
On to `O=C1CCc2cc3c(cc21)C(C(=O)O)CC3` (configuration not stated), for which the GI50 in assay [1] and in assay [2] was > 100 µM (inactive) each time.
Regarding `CC(=O)N(C)CCc1c[nH]c2ccccc12`, the GI50 in assay [1] and in assay [2] was > 100 µM (inactive) throughout.
In the case of `C(/Cc1ccc2c(c1)OCO2)=N\N=C1NCCN1`, the GI50 in assay [1] is > 100 µM (inactive).
For the molecule `CCCC(=O)Nc1cc(/C=C/C(=O)N2CC(CCl)c3c2cc(OC(C)=O)c2[nH]cc(C)c32)n(C)c1` (configuration not stated), the GI50 in assay [1] is 2.94e-05 µM (active); in assay [2], 5.12e-05 µM (active).
In the case of `O=c1c(C(c2ccc(O)cc2)c2c(O)oc3ccccc3c2=O)c(O)oc2ccccc12`, the GI50 in assay [2] is 45.2 µM (inactive).
As for `CCN(CC)CCC(=O)c1ccc(Cl)c(Cl)c1`, the GI50 in assay [1] is 12.8 µM (inactive); in assay [2], > 10 µM (inactive).
As to `[O-]c1c2cc(-[n+]3c(-c4ccccc4)cc(-c4ccccc4)cc3-c3ccccc3)cc1CO[C@@H](c1ccccc1)[C@H](c1ccccc1)OCc1cccc(n1)CO[C@@H](c1ccccc1)[C@H](c1ccccc1)OC2`, the GI50 in assay [1] was 0.0388 µM (active); in assay [2], 0.0548 µM (active).
As to `O=C(O)CNC(=O)CO/N=C1/C(=C2/C(=O)Nc3ccccc32)Nc2ccccc21`, the values for the GI50 in assay [1] and in assay [2] were 72.4 µM (inactive) and 84.9 µM (inactive), respectively.
In the case of `COc1cc(/C=C(\C#N)C(=O)c2ccccc2)ccc1OCc1ccccc1`, the GI50 in assay [3], in assay [6], in assay [7] and in assay [8] was > 100 µM (inactive) throughout.
Turning to `CCCSC1=N/C(=C\c2ccco2)C(=O)N1`, the GI50 was 36 µM (inactive) in assay [1] and > 100 µM (inactive) in assay [2].
Regarding `CN(Cc1ccccc1)Cn1ccnc1`, the GI50 in assay [1] was 41 µM (inactive); in assay [2] it was 76 µM (inactive).
`CC(=O)OCC1OC(O[C@@H]2c3c(O)c4c(c(O)c3C3=C(NN(c5ccc([N+](=O)[O-])cc5[N+](=O)[O-])[Se]3=O)[C@@]2(C)O)C(=O)c2ccccc2C4=O)C(OC(C)=O)C(OC(C)=O)C1OC(C)=O` (some centres not stated): the GI50 was 0.207 µM (active) in assay [1] and 0.273 µM (active) in assay [2].
In the case of `COc1ccc(CC2c3cc(Oc4cc(CC5c6cc(OC)c(OC)cc6CCN5C)ccc4O)c(OC)cc3CCN2C)cc1` (configuration not stated), the GI50 in assay [1] is 5.81 µM (inactive); in assay [2] it was 7.1 µM (inactive).
As for `C=CCC(NC(=O)C(CC(=O)OC(C)(C)C)NC(=O)OC(C)(C)C)C(=O)OC` (configuration not stated) (Boc-Asp(OtBu)-[AllylGly]-OMe; configuration not given here), the GI50 in assay [1] is 55.8 µM (inactive); in assay [2] it was 31 µM (inactive).
